Measurements published in US20120100230A1, “Systems, Devices, and/or Methods for Managing Crops” (DHARMA IP, LLC, priority 2010, published 2012).

Experiment: Solubility of beta-cyclodextrin in water containing ClO2 (slurry test)
Assay type: physicochemical
Settings: 100 g slurry, 5% beta-cyclodextrin (w/w) in 8000 ppm ClO2 vs ultrapure water, 200 rpm, 3 days
Description: However indirect evidence for the complex has been observed. Beta-cyclodextrin has a known solubility in water. If the water contains a guest substance that produces a cyclodextrin complex more soluble than the cyclodextrin alone, more of the cyclodextrin will dissolve into water containing that guest than into plain water. This enhanced solubility has been observed for beta-cyclodextrin in water containing ClO2. Two separate 100 g slurries of beta-cyclodextrin solutions were prepared. […] Both slurries were mixed at 200 rpm for 3 days, at which time the undissolved beta-cyclodextrin was isolated from both solutions and dried for 2 days in a desiccator. […] It is believed, by extension, that ClO2 might form complexes with gamma-cyclodextrin and/or chemically derivatized versions of the natural (alpha- (“α”), beta- (“β”), and gamma- (“γ”)) cyclodextrins. In the case of beta- and/or gamma-cyclodextrin and/or other cyclodextrins having internal cavities larger than that of alpha-cyclodextrin, it might be that the complex(es) formed with ClO2 will incorporate numbers of ClO2 molecules greater than one per cyclodextrin molecule.

OC[C@H]1O[C@@H]2O[C@H]3[C@H](O)[C@@H](O)[C@@H](O[C@H]4[C@H](O)[C@@H](O)[C@@H](O[C@H]5[C@H](O)[C@@H](O)[C@@H](O[C@H]6[C@H](O)[C@@H](O)[C@@H](O[C@H]7[C@H](O)[C@@H](O)[C@@H](O[C@H]8[C@H](O)[C@@H](O)[C@@H](O[C@H]1[C@H](O)[C@H]2O)O[C@@H]8CO)O[C@@H]7CO)O[C@@H]6CO)O[C@@H]5CO)O[C@@H]4CO)O[C@@H]3CO [beta-cyclodextrin]
weight of dried undissolved beta-cyclodextrin from ClO2 containing slurry less than the control slurry: 0.32 g
